Patent publication US6531508B1, “Antibacterial medicinal compositions” (priority 1999, dated 2003)

Key:
[1] = Gastrointestinal absorption of compound 1 after oral administration (plasma AUC); type: in vivo, Sprague-Dawley rats; details: rat; for AUC: male, Sprague-Dawley, compound 1 as free acid in plasma
Protocol: Seven-week old male Sprague-Dawley rats orally received 70.5 mg/kg (57.1 mg (potency)/kg) of compound 1 and 57.1 mg/kg of disodium ethylenediaminetetraacetate. Controls orally received 70.5 mg/kg of compound 1 alone. At 0.1-10 hours after administration, blood was collected. The concentration of compound 1 as free acid in plasma was determined by high-performance liquid chromatography. For determination, plasma was used after pretreatment. That is, 0.2 mL of plasma was stirred with 0.2 mL of acetonitrile and then centrifuged at 4° C., 12000 rpm for 15 min. Two hundreds μL of this supernatant was diluted in 800 μL of 10 mM phosphate buffer, and 200 μL of this dilution was applied on a high-performance liquid chromatography column. The chromatography conditions were as follows. A stainless steel high-performance liquid chromatographic column packed with octadecylsilyl silica gel was used. The column temperature was room temperature. The mobile phase consisted of a binder containing 680 mL of a 20 mM aqueous sodium dihydrogenphosphate solution adjusted at pH 2 with phosphoric acid and 320 mL of acetonitrile. The flow rate was controlled at 1 mL/min. For detection, a UV absorption spectrometer was used at a wavelength of 318 nm.

[2] = system: methicillin-sensitive Staphylococcus aureus (MSSA), Streptococcus pyrogenes and Streptococcus pneumoniae, penicillin-resistant pneumococci (PRSP), oral …; details: reported in the literature; gram-positive bacteria incl. strains where conventional β-lactams are ineffective; cited from earlier work
[3] = system: Porphyromonas gingivalis; details: reported in the literature; cited from earlier work
[4] = system: bacterial strains from dental infectious diseases; details: reported in the literature; increasingly resistant strains; cited from earlier work

Structure (SMILES): C[C@@H](O)[C@H]1C(=O)N2C(C(=O)O)=C([C@H]3CCCO3)S[C@H]12 [compound 1, Sodium (+)-(5R,6S)-6-[(R)-1-hydroxyethyl]-7-oxo-3-[(R)-2-tetrahydrofuryl]-4-thia-1-azabicyclo[3.2.0]hept-2-ene-2-carboxylate 5/2 hydrate]
- Change of AUC versus control group ([1]; group coadministered with disodium ethylenediaminetetraacetate compared with compound 1 alone): approximately doubled
- AUC ([1]; 70.5 mg/kg compound 1 with 57.1 mg/kg disodium ethylenediaminetetraacetate): 24800 ± 9300 ng·h/mL
- AUC ([1]; control group: 70.5 mg/kg compound 1 alone): 12600 ± 5700 ng·h/mL
- Antibacterial activity [2]: potent antibacterial activity
- Antibacterial activity [3]: potent antibacterial activity
- Antibacterial activity [4]: potent antibacterial activity
